This is an account of results in patent US7595330B2, “Benzimidazole thiophene compounds” (SmithKline Beecham Corporation, priority 2005, dated 2009).

What is called IC50 is the concentration needed to halve the response being measured. As usually defined, the fraction unbound is free concentration divided by total concentration. Higher therefore signals weak binding. In general, pIC50 refers to the IC50 on a negative log10 scale, so that one unit is a factor of ten. A high value points to a small IC50. For orientation: solubility means the dissolved amount per volume that the medium holds.

One data set concerns H460. Nature of the data set: Methylene blue growth inhibition assay, H460. It counts as cell-based. As to conditions: Homo sapiens, NCI-H460, 72 h, read-out: H460 IC50 (μM). On the procedure:
(§1) II. Methylene Blue Growth Inhibition Assay—Inhibition of Cell Proliferation by PLK1 Inhibitors
(§2) Generally, exponentially growing cell lines of different tumor origins, cultured in appropriate media containing 10% fetal bovine serum at 37° C. in a 5% CO2 incubator were plated at low density (less than 2000 cells/well) in 96-well plates. […]. Seventy two hours post-treatment, cell numbers were determined using 100 μl per well of methylene blue (Sigma M9140) (0.5% in 50:50 Ethanol:water). Stain was incubated at room temperature for 30 minutes before plates were rinsed and dye solubilized in 1% N-lauroyl sarcosine, sodium salt, (Sigma L5125, in PBS) (further details of a methylene blue assay are described below). Plates were read on a microplate reader, measuring the OD at 620 nm.
(§3) . The data are shown in Table 1 below and represent a compilation of several different experiments, each performed using the general parameters outlined above, although minor variations may have been employed in some instances.
(§4) In one assay, normal human foreskin fibroblasts (HFF), human colon (HCT116, RKO), lung (H460, A549) and breast (MCF7) tumor cell lines were cultured in high glucose DMEM (Life Technologies) containing 10% fetal bovine serum (FBS) at 37° C. in a humidified 5% CO2, 95% air incubator. Cells were harvested using trypsin/EDTA, counted using a haemocytometer, and plated in 100 μL of culture media per well, at the following densities, in a 96-well tissue culture plate (Falcon 3075): HFF 5,000 cells/well, HCT116 3,000 cells/well, RKO 2,500 cells/well, H460 2,500 cells/well, A549 5,000 cells/well, MCF7 4,000 cells/well. The next day, compounds were diluted in low glucose DMEM containing 100 μg/mL gentamicin, at twice the final required concentration, from 10 mM stock solutions in DMSO. 100 μL/well of these dilutions were added to the 100 μL of media currently in the assay plates. Medium containing 0.6% DMSO was added to control wells. The final concentration of DMSO in all wells was 0.3%. Cells were incubated at 37° C., 5% CO2 for 72 h. Medium was removed by aspiration. Cell biomass was estimated by staining cells with 80 μL per well methylene blue (Sigma M9140, 0.5% in 50:50 ethanol:water), and incubation at room temperature for 30-60 min. Stain was removed by aspiration and the plates rinsed by immersion in water, then air-dried. To release stain from the cells, 100 μL of solubilization solution was added (1% N-lauroyl sarcosine, Sodium salt, Sigma L5125, in PBS), and plates were shaken gently for about 30 min. Optical density at 620 nm was measured on a microplate reader. Percent inhibition of cell growth was calculated relative to vehicle treated control wells. […].

A further data set deals with A549. Nature of the data set: Methylene blue growth inhibition assay, A549. It counts as cell-based. As to conditions: Homo sapiens, A549, 72 h, read-out: A549 IC50 (μM). On the procedure: as §1, §2, §3, §4
The subject of data set [1] is HCT116. As to the kind of experiment: Methylene blue growth inhibition assay, HCT116. It counts as cell-based. As to conditions: Homo sapiens, HCT-116, 72 h, read-out: HCT116 IC50 (μM). As to the method:
as §1, §2, §3, §4

Data set [2] deals with MCF7. Nature of the data set: Methylene blue growth inhibition assay, MCF7. The data set is classed as cell-based. As to conditions: Homo sapiens, MCF7, 72 h, read-out: MCF7 IC50 (μM). On the procedure:
as §1, §2, §3, §4

A further data set relates to human plasma proteins. As to the kind of experiment: Protein binding to human plasma proteins using equilibrium dialysis. As to conditions: pH 7.4, equilibrium dialysis 6 h, 37° C. The data set is classed as in vitro ADME. As to the method:
III. Determination of Protein Binding to Human Plasma Proteins Using Equilibrium Dialysis
96 Well Plate (High Throughput Dialysis): Stock solutions of compounds were spiked into human plasma at a target concentration of 2000 ng/mL. The mixture was inverted gently several times to insure homogeneity and triplicate 50 μL aliquots were collected to verify initial concentrations. Following assembly of dialysis plate (HTDialysis membrane strips, molecular weight cut off limit of 12,000-14,000 daltons), spiked plasma (150 μL) was placed in the donor compartment of the well and Phosphate Buffered Saline pH 7.4 (150 μL) in the receiver compartment. Eight wells were set up per compound and plasma type. Plate was placed in a 37° C. incubator on a plate shaker. Following the 6 h incubation period, the plate was removed. Single 50 μL aliquots from each donor and receiver compartment (per well) were analyzed. Sample analysis was by LC/MS/MS (results reported as Drug Peak Area/Internal Standard Peak Area ratios). Protein binding assay can also be performed using dialysis cells instead of HT Dialysis 96 well plates. In Table 1, % Protein Binding, +=>98%; ++=95-98%: +++=<95%.
On the technique in general: In equilibrium dialysis only unbound substance equilibrates across the membrane.

The next data set deals with A549-L. Nature of the data set: Cell-Titer-Glo inhibition of cell proliferation, A549-L. The data set is classed as cell-based. As to conditions: CellTiter-Glo, 72 h. As to the method:
(§5) V. Cell-Titer-Glo—Inhibition of Cell Proliferation by PLK1 Inhibitors
(§6) Exponentially growing cell lines of different tumor origins, cultured in appropriate media containing 10% fetal bovine serum at 37° C. in a 5% CO2 incubator were plated at low density (less than 2000 cells/well) in 96-well plates. Twenty four hours post-plating, cells were treated with different concentrations of test compounds ranging from 10 uM to 0.04 nM. Several wells were left untreated as a control. Seventy two hours post-treatment, cell numbers were determined using 50-100 ul per well of CellTiter-Glo (Promega #G7573). Plates were incubated at room temperature for 15 minutes and the chemiluminescent signal was read on the Victor V or Envison 2100 reader.
(§7) The Cell-Titer Glo data are shown in Table 2 below and represent a compilation of several different experiments, each performed using the general parameters outlined above, although minor variations may have been employed in some instances.
(In general: ATP-based viability assays read luminescence as a measure of living cells.)

Data set [3] has as its system normal human foreskin fibroblasts (HFF). As to the kind of experiment: Methylene blue growth inhibition assay, HFF. As to conditions: Fibroblast, 72 h, read-out: HFF IC50 (μM). It counts as cell-based. As to the method:
as §1, §2, §3, §4

Another data set concerns COLO205. Nature of the data set: Cell-Titer-Glo inhibition of cell proliferation, COLO205. The data set is classed as cell-based. As to conditions: Homo sapiens, COLO 205, CellTiter-Glo, 72 h. As to the method: as §5, §6, §7
Data set [4] is described as follows: High throughput solubility assay. It counts as physicochemical. As to conditions: aqueous buffer, pH 7.4, 0.05M phosphate buffer. As to the method:
IV. High Throughput Solubility Assay
Two samples are prepared for each compound. One (the standard sample) contains the compound at a fixed concentration of 20 μM in an aqueous/organic mixed solvent cocktail. The other (the test sample) contains the compound at a maximum concentration of 200 μM in pH 7.4, 0.05M phosphate buffer and shaking for 24 h. The test sample is filtered by 0.45μ filter and then spun for 10 min to remove any undissolved solid. HPLC analyses are preformed on these samples. The peak areas are used for computing solubility.

The subject of data set [5] is MCF7. As to the kind of experiment: Cell-Titer-Glo inhibition of cell proliferation, MCF7. As to conditions: Homo sapiens, CellTiter-Glo, 72 h. It counts as cell-based. On the procedure:
as §5, §6, §7

The subject of the next data set is SKOV-3. Nature of the data set: Cell-Titer-Glo inhibition of cell proliferation, SKOV-3. It counts as cell-based. As to conditions: Homo sapiens, SK-OV-3, CellTiter-Glo, 72 h. On the procedure: as §5, §6, §7
The subject of a further data set is H1299. Nature of the data set: Cell-Titer-Glo inhibition of cell proliferation, H1299. The data set is classed as cell-based. As to conditions: Homo sapiens, NCI-H1299, CellTiter-Glo, 72 h. As to the method:
as §5, §6, §7

Another data set deals with MX-1. Nature of the data set: Cell-Titer-Glo inhibition of cell proliferation, MX-1. It counts as cell-based. As to conditions: Homo sapiens, MX1, CellTiter-Glo, 72 h. As to the method: as §5, §6, §7
For a further data set, the system named is MDA-MB-468. As to the kind of experiment: Cell-Titer-Glo inhibition of cell proliferation, MDA-MB-468. As to conditions: Homo sapiens, CellTiter-Glo, 72 h. It counts as cell-based. On the procedure:
as §5, §6, §7

Another data set deals with HT29. Nature of the data set: Cell-Titer-Glo inhibition of cell proliferation, HT29. The data set is classed as cell-based. As to conditions: Homo sapiens, HT-29, CellTiter-Glo, 72 h. As to the method: as §5, §6, §7
The next data set relates to RKO. As to the kind of experiment: Methylene blue growth inhibition assay, RKO. It counts as cell-based. As to conditions: Homo sapiens, 72 h, read-out: RKO IC50 (μM). On the procedure: as §1, §2, §3, §4
A further data set concerns MV522. As to the kind of experiment: Cell-Titer-Glo inhibition of cell proliferation, MV522. It counts as cell-based. As to conditions: CellTiter-Glo, 72 h. On the procedure:
as §5, §6, §7

The test system of data set [6] is HCT116. As to the kind of experiment: Cell-Titer-Glo inhibition of cell proliferation, HCT116. As to conditions: Homo sapiens, HCT-116, CellTiter-Glo, 72 h. It counts as cell-based. On the procedure: as §5, §6, §7

pIC50: −log10 of the molar value.

In the case of `C[C@@H](Oc1cc(-n2cnc3ccc(OC4CCNCC4)cc32)sc1C(N)=O)c1ccccc1C(F)(F)F` [Example 5, 5-[6-(4-Piperidinyloxy)-1H-benzimidazol-1-yl]-3-({(1R)-1-[2-(trifluoromethyl)phenyl]ethyl}oxy)-2-thiophenecarboxamide], the IC50 with H460 is < 0.1 µM; in the data set on A549 it was < 0.1 µM; with HCT116 [1], < 0.1 µM; in the data set with MCF7 [2] it was < 0.1 µM; in data set [3] it was 0.1 to 1 µM; in the data set on RKO, < 0.1 µM. Moreover, the unbound share (fraction unbound) at 6 h, 2000 ng/mL in the data set with human plasma proteins was in the range of 0.02 to 0.05. The negative-log IC50 (pIC50) with A549-L, in the data set on COLO205, in the data set on MCF7 [5], in the data set on SKOV-3, in the data set on H1299 and in the data set with MX-1 was > 6.30 each time. Besides, the pIC50 in the data set with MDA-MB-468, in the data set on HT29, in the data set with MV522 and in the data set on HCT116 [6] was > 6.30 each time. For the same molecule, the solubility at 24 h in data set [4] was > 100 µM.
